# In patent publication US10485772B2, “Compositions for modulating cancer stem cells and uses therefor” (University of Canberra, priority 2014, dated 2019):
# Assays:
# MDA-MB 231 cells = assay: Phase contrast microscopy of EMT/MET in Basal/metastatic model; assay type: cell-based, human; conditions: Bisindolylmaleimide 4 μM
# Description: Phase contrast microscopy was utilized for EMT and wound healing assays under 10× or 20× magnification of Olympus Fluorescence 1X71 microscope. Images were captured and analyzed as described above except that wound healing assay pictures were also analyzed by Image J software (Free software in Public domain developed by NIH).
# The adherent human mammary adenocarcinoma MCF-7 and MDA-MB-231 cells were cultured in low glucose DMEM (Gibco) and both supplemented with 10% FCS, 2 mM L-glutamine and 0.1% PSN antibiotics. Cells were stimulated with 0.65 ng/ml of phorbol 12-myristate 13-acetate (PMA) (Sigma-Aldrich) or 20 ng/ml of TGF-β (R&D systems) for the times indicated. For Bisindolylmaleimide-I (Calbiochem) or PKC-θ peptide inhibitor (Calbiochem) studies, cells were pre-treated with 1 μM or 30 μM of inhibitor respectively for 1 h prior to stimulation in MCF-7 cells. In case of MDA-MB-231, cells were treated with 4 μM or 30 μM Bisindolylmaleimide-I or PKC-θ peptide inhibitor respectively.
# phase contrast microscopy was performed where cells were viewed at ×4 magnification (wound healing assay) or ×10 magnification (EMT) using an Olympus fluorescence IX71 microscope (Olympus) and images were captured using DPController software (2002 Olympus Optical Co. LTD) and analyzed using Photoshop CS3 (Adobe Systems Inc.). Scans were taken with a 10 μm scale bar.
# [1] = test system: laminin-5, uPAR and CD44 transcripts in MDA-MB 231 cells; assay: TaqMan real time PCR transcript analysis of EMT/CSC genes in basal/metastatic model; assay type: cell-based, human; conditions: bisindolylmaleimide-I 4 μM
# Description: For most of the experiments, total RNA was extracted from 5×10^5 to 1×10^6 MCF-7 cells unless otherwise specified. Cells were first thawed in 1 mL of Trizol® Reagent (Invitrogen, Carlsbad, Calif.) for 5 minutes at room temperature to inactivate RNases, followed by trituration to dislodge the cell pellet. The dissociated cells suspended in Tizol (1 mL) were transferred into a 1.5 mL Eppendorf tube for 5 minutes for homogenization. RNA was then extracted by addition of 200 μL chloroform and mixing was done vigorously before centrifuging the samples at 8,000×g for 30 minutes at 4° C. The aqueous layer was then collected into a fresh 1.5 mL Eppendorf tube and an equal volume of isopropanolol was added to the aqueous layer and mixed gently. After 5 minutes at room temperature, samples were either snap frozen on dry ice and stored at −70° C. overnight or until the isolation procedure could be re-commenced. […] Next, 2 μL of the sample was taken out to measure RNA quality and quantity on Nano-drop® Spectrophotometer ND 1000 (Nanodrop Technologies, Inc., Wilmington, Del., USA) using ND-1000 V3.30 software. […]
# Superscript™® III kit (Invitrogen, Carlsbad, Calif.) was used for cDNA synthesis. […] All the samples were either snap frozen on dry ice or used immediately for quantitative Real-Time PCR analysis. […]
# [2] = listed as Broad spectrum PKC pathway inhibitor
smiles,measurement,setting,value
CN(C)CCCn1cc(C2=C(c3c[nH]c4ccccc34)C(=O)NC2=O)c2ccccc21 [bisindolylmaleimide-I],EMT (morphology),MDA-MB 231 cells,inhibits EMT
same,EMT (morphology),MDA-MB 231 cells; [2],inhibition of EMT and CSC formation
same,"transcription of key inducible EMT/CSC genes (laminin-5, uPAR, CD44)",[1],inhibits transcription of key inducible EMT/CSC genes
same,"transcription of key inducible EMT/CSC genes (laminin-5, uPAR, CD44)",[1]; [2],inhibition of EMT and CSC formation
